Assays:
h-TGR5 = target: T1, h-TGR5 (Homo sapiens, UniProt Q8TDU6); test: TGR5 cAMP Assay using Cisbio cAMP Dynamic 2 htrf assay kit; type: cell-based; details: hTGR5CRE-luc HEK 293 cells
T1 sequence (Q8TDU6 1-330): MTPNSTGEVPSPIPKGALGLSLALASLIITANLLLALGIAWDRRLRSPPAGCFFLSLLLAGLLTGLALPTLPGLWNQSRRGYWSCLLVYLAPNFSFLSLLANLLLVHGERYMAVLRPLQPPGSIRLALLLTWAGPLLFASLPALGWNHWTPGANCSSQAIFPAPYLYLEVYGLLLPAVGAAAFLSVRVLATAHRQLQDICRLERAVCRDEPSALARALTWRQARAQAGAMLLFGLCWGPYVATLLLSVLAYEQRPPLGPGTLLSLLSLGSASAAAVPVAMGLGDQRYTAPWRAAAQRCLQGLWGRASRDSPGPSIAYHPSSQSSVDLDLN

human TGR5 (h-TGR5) = target: T2, human TGR5 (h-TGR5) (Homo sapiens, UniProt Q8TDU6); test: TGR5/CRE-Luciferase Assay; type: cell-based; details: HEK 293 hTGR5/CRE-Luc cells, 6 hours incubation, read-out: CRE-Luc Agonist (EC50)
T2 sequence (Q8TDU6 1-330): T1 sequence (Q8TDU6 1-330)
Procedure, shortened: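 HEK 293 CRE-Luciferase cells stably expressing the receptor, plated in DMEM 18-20 h before assay, then exposed to serially diluted compounds (DMEM with 5% DMSO) for 6 h. Luciferase read-out after lysis; EC50 from dose-response.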

SMILES	EC50 (h-TGR5) [nM]	EC50 (human TGR5 (h-TGR5)) [nM]
COc1cc(C(C)(C)c2cnc(SCc3c(F)cc(C#CC[N+](C)(C)C)cc3F)n2-c2ccc(F)cc2)ccc1Cl [Compound 18, 3-(4-((5-(2-(4-Chloro-3-methoxyphenyl)propan-2-yl)-1-(4-fluorophenyl)-1H-imidazol-2-ylthio)methyl)-3,5-difluorophenyl)-N,N,N-trimethylprop-2-yn-1-aminium 4-methylbenzenesulfonate]	< 100	< 100
CC[N+](CC)(CC)CC#Cc1cc(F)c(CSc2ncc(C(C)(C)c3ccc(Cl)c(OC)c3)n2-c2ccc(F)cc2)c(F)c1 [Compound 18a, 3-(4-((-5-(2-(4-chloro-3-methoxyphenyl)propan-2-yl)-1-(4-fluorophenyl)-1H-imidazol-2-ylthio)methyl)-3,5-difluorophenyl)-N,N,N-triethylprop-2-yn-1-aminium chloride]	< 100	< 100
COc1cc(C(C)(C)c2cnc(SCc3c(F)cc(CCC[N+]45CCN(CC4)CC5)cc3F)n2-c2ccc(F)cc2)ccc1Cl [Compound 19, 1-(3-(4-((5-(2-(4-chloro-3-methoxyphenyl)propan-2-yl)-1-(4-fluorophenyl)-1H-imidazol-2-ylthio)methyl)-3,5-difluorophenyl)propyl)-4-aza-1-azoniabicyclo[2.2.2.2]octane 2,2,2-trifluoroacetate]	< 100	< 100
COc1cc(C(C)(C)c2cnc(SCc3c(F)cc(CCC[N+](C)(C)C)cc3F)n2-c2ccc(F)cc2)ccc1Cl [Compound 19a, 3-(4-((5-(2-(4-chloro-3-methoxyphenyl)propan-2-yl)-1-(4-fluorophenyl)-1H-imidazol-2-ylthio)methyl)-3,5-difluorophenyl)-N,N,N-trimethylpropan-1-aminium 2,2,2-trifluoroacetate]	< 100	< 100
COc1cc(-n2c(C(C)(C)c3ccc(F)c(Cl)c3)cnc2SCc2c(F)cc(CCC[N+](C)(C)C)cc2F)ccc1F [Compound 19b, 3-(4-((5-(2-(3-chloro-4-fluorophenyl)propan-2-yl)-1-(4-fluoro-3-methoxyphenyl)-1H-imidazol-2-ylthio)methyl)-3,5-difluorophenyl)-N,N,N-trimethylpropan-1-aminium 2,2,2-trifluoroacetate]	< 100	< 100
COc1ccc(C(C)(C)c2cnc(SCc3c(F)cc(CCC[N+](C)(C)C)cc3F)n2-c2ccc(F)cc2)cc1Cl [Compound 19c, 3-(4-((5-(2-(3-chloro-4-methoxyphenyl)propan-2-yl)-1-(4-fluorophenyl)-1H-imidazol-2-ylthio)methyl)-3,5-difluorophenyl)-N,N,N-trimethylpropan-1-aminium 2,2,2-trifluoroacetate]	< 100	< 100
COc1cc(C(C)(C)c2cnc(SCc3c(F)cc(CCC[N+](C)(C)C)cc3Cl)n2-c2ccc(F)cc2)ccc1Cl [Compound 19d, 3-(3-chloro-4-((5-(2-(4-chloro-3-methoxyphenyl)propan-2-yl)-1-(4-fluorophenyl)-1H-imidazol-2-ylthio)methyl)-5-fluorophenyl)-N,N,N-trimethylpropan-1-aminium 2,2,2-trifluoroacetate]	< 100	< 100
COc1cc(C(C)(C)c2cnc(SCc3c(F)cc(CCCC[N+](C)(C)C)cc3F)n2-c2ccc(F)cc2)ccc1Cl [Compound 19e, 4-(4-((5-(2-(4-chloro-3-methoxyphenyl)propan-2-yl)-1-(4-fluorophenyl)-1H-imidazol-2-ylthio)methyl)-3,5-difluorophenyl)-N,N,N-trimethylbutan-1-aminium 2,2,2-trifluoroacetate]	< 100	< 100
COc1cc(-n2c(C(C)(C)c3ccc(S(N)(=O)=O)c(Cl)c3)cnc2SCc2c(F)cc(CCC[N+](C)(C)C)cc2F)ccc1F [Compound 19f, 3-(4-((5-(2-(3-chloro-4-sulfamoylphenyl)propan-2-yl)-1-(4-fluoro-3-methoxyphenyl)-1H-imidazol-2-ylthio)methyl)-3,5-difluorophenyl)-N,N,N-trimethylpropan-1-aminium 2,2,2-trifluoroacetate]	< 100	< 100
COc1cc(C(C)(C)c2cnc(SCc3c(F)cc(OCC[N+](C)(C)C)cc3F)n2-c2ccc(F)cc2)ccc1Cl [Compound 20, 2-(4-((5-(2-(4-Chloro-3-methoxyphenyl)propan-2-yl)-1-(4-fluorophenyl)-1H-imidazol-2-ylthio)methyl)-3,5-difluorophenoxy)-N,N,N-trimethylethanaminium 2,2,2-trifluoroacetate]	< 100	< 100

Continued, values first:

EC50 (h-TGR5) [nM]	EC50 (human TGR5 (h-TGR5)) [nM]	SMILES
< 100	< 100	COc1cc(C(C)(C)c2cnc(SCc3c(F)cc(S(=O)(=O)N(C)[C@@H](CCCC[N+](C)(C)C)C(=O)O)cc3F)n2-c2ccc(F)cc2)ccc1Cl [Compound 17g, (S)-5-carboxy-5-(4-((5-(2-(4-chloro-3-methoxyphenyl)propan-2-yl)-1-(4-fluorophenyl)-1H-imidazol-2-ylthio)methyl)-3,5-difluoro-N-methylphenylsulfonamido)-N,N,N-trimethylpentan-1-aminium 2,2,2-trifluoroacetate]
< 100	< 100	CN([C@@H](CCCC[N+](C)(C)C)C(=O)O)S(=O)(=O)c1cc(F)c(CSc2ncc(C(C)(C)c3ccc(Cl)c(Cl)c3)n2-c2ccc(F)cc2)c(Cl)c1 [Compound 17h, (S)-5-carboxy-5-(3-chloro-4-((5-(2-(3,4-dichlorophenyl)propan-2-yl)-1-(4-fluorophenyl)-1H-imidazol-2-ylthio)methyl)-5-fluoro-N-methylphenylsulfonamido)-N,N,N-trimethylpentan-1-aminium 2,2,2-trifluoroacetate]
< 100	< 100	COc1cc(C(C)(C)c2cnc(SCc3c(F)cc(S(=O)(=O)N[C@H](CCCC[N+](C)(C)C)C(=O)O)cc3Cl)n2-c2ccc(F)cc2)ccc1Cl [Compound 17i, (R)-5-carboxy-5-(3-chloro-4-((5-(2-(4-chloro-3-methoxyphenyl)propan-2-yl)-1-(4-fluorophenyl)-1H-imidazol-2-ylthio)methyl)-5-fluorophenylsulfonamido)-N,N,N-trimethylpentan-1-aminium 2,2,2-trifluoroacetate]
< 100	< 100	COc1cc(C(C)(C)c2cnc(SCc3c(F)cc(S(=O)(=O)N(C)[C@H](CCCC[N+](C)(C)C)C(=O)O)cc3Cl)n2-c2ccc(F)cc2)ccc1Cl [Compound 17j, (R)-5-carboxy-5-(3-chloro-4-((5-(2-(4-chloro-3-methoxyphenyl)propan-2-yl)-1-(4-fluorophenyl)-1H-imidazol-2-ylthio)methyl)-5-fluoro-N-methylphenylsulfonamido)-N,N,N-trimethylpentan-1-aminium 2,2,2-trifluoroacetate]
< 100	< 100	COc1cc(C(C)(C)c2cnc(SCc3c(F)cc(S(=O)(=O)N(C)[C@H](CCCC[N+](C)(C)C)C(=O)O)cc3F)n2-c2ccc(F)cc2)ccc1Cl [Compound 17k, (R)-5-carboxy-5-(4-((5-(2-(4-chloro-3-methoxyphenyl)propan-2-yl)-1-(4-fluoro-phenyl)-1H-imidazol-2-ylthio)methyl)-3,5-difluoro-N-methylphenylsulfonamido)-N,N,N-trimethylpentan-1-aminium 2,2,2-trifluoroacetate]
< 100	< 100	COc1cc(C(C)(C)c2cnc(SCc3c(F)cc(S(=O)(=O)N(C)[C@@H](CCCCC[N+](C)(C)C)C(=O)O)cc3Cl)n2-c2ccc(F)cc2)ccc1Cl [Compound 17l, (S)-6-carboxy-6-(3-chloro-4-((5-(2-(4-chloro-3-methoxyphenyl)propan-2-yl)-1-(4-fluorophenyl)-1H-imidazol-2-ylthio)methyl)-5-fluoro-N-methylphenylsulfonamido)-N,N,N-trimethylhexan-1-aminium 2,2,2-trifluoroacetate]
< 100	< 100	COc1cc(C(C)(C)c2cnc(CCc3c(F)cc(S(=O)(=O)N(CCC[N+](C)(C)C)[C@H](C)C(=O)O)cc3Cl)n2-c2ccc(F)cc2)ccc1Cl [Compound 17m, (R)-3-(N-(1-carboxyethyl)-3-chloro-4-(2-(5-(2-(4-chloro-3-methoxyphenyl)propan-2-yl)-1-(4-fluorophenyl)-1H-imidazol-2-yl)ethyl)-5-fluorophenylsulfonamido)-N,N,N-trimethylpropan-1-aminium 2,2,2-trifluoroacetate]
< 100	< 100	COc1cc(C(C)(C)c2cnc(CCc3c(F)cc(S(=O)(=O)N[C@@H](CCCC[N+](C)(C)C)C(=O)O)cc3Cl)n2-c2ccc(F)cc2)ccc1Cl [Compound 17n, (S)-5-carboxy-5-(3-chloro-4-(2-(5-(2-(4-chloro-3-methoxyphenyl)propan-2-yl)-1-(4-fluorophenyl)-1H-imidazol-2-yl)ethyl)-5-fluorophenylsulfonamido)-N,N,N-trimethylpentan-1-aminium 2,2,2-trifluoroacetate]
< 100	< 100	COc1cc(C(C)(C)c2cnc(CCc3c(F)cc(S(=O)(=O)N(C)[C@@H](CCCC[N+](C)(C)C)C(=O)O)cc3Cl)n2-c2ccc(F)cc2)ccc1Cl [Compound 17o, (S)-5-carboxy-5-(3-chloro-4-(2-(5-(2-(4-chloro-3-methoxyphenyl)propan-2-yl)-1-(4-fluorophenyl)-1H-imidazol-2-yl)ethyl)-5-fluoro-N-methylphenylsulfonamido)-N,N,N-trimethylpentan-1-aminium 2,2,2-trifluoroacetate]
